In patent US20230310388A1, “Methods and Compositions for Treating Fungal Infections” (Neoculi Pty Ltd, priority 2020, published 2023):
In brackets after ≈: the same amount, converted by molar mass.

What was measured:
Candida albicans [1] = assay: CLSI broth microdilution MIC (Example 3); assay type: cell-based
Protocol: (§1) Antifungal minimum inhibitory concentration (MIC) testing was undertaken as recommended by the CLSI. Briefly, antifungal susceptibility tests were performed for amphotericin B, robenidine (NCL812) and 5 robenidine analogs (NCL062, NCL195, NCL219, NCL259, NCL265) by standard broth microdilution method (CLSI) in RPMI 1640. Various concentrations (ranging from high to low) of the selected compounds were prepared in RPMI 1640 medium by double dilution in 96-well microtitre plates. Each well contained an inoculum of approximately 2×10^3 cells/mL. The wells without addition of drugs served as negative (no inoculum) and positive (inoculum only) growth controls. Microtitre plates were incubated at 35° C. for 24-48 hours. […] Antifungal MICs were determined for each isolate in duplicate; if the values obtained were different, the MIC test was repeated a third time. Antifungal susceptibility tests were performed for amphotericin B and NCL analogs by standard broth microdilution method (CLSI). Briefly, various concentrations (ranging from high to low) of the selected compounds were prepared in RPMI 1640 medium by double dilution in the 96-well plates. Each well contained an inoculum of approximately 2×10^3 cells/mL. The wells without addition of drugs served as a negative control. Micro plates were incubated at 35° C. for 48 hour and read spectrophotometrically at 600 nm, using a microplate reader (Multiskan-EX; Thermo Elect. Corp., USA).

Candida parapsilosis = assay: CLSI broth microdilution MIC (Example 3); assay type: cell-based; settings: Candida parapsilosis ATCC 22019
Protocol: as §1

Candida albicans [2] = assay: CLSI broth microdilution MIC (Example 4); assay type: cell-based
Protocol: (§2) Antifungal minimum inhibitory concentration (MIC) testing was undertaken as recommended by the CLSI. Briefly, antifungal susceptibility tests were performed for amphotericin B, robenidine (NCL812) and robenidine (NCL) analogs (NCL004, NCL020, NCL023, NCL024, NCL062, NCL094, NCL097, NCL110, NCL113, NCL114, NCL115, NCL135, NCL139, NCL180, NCL181, NCL195, NCL219, NCL220, NCL228, NCL247, NCL250, NCL259, NCL260, NCL263, NCL265, NCL269, NCL274) by standard broth microdilution method (CLSI) in RPMI 1640. Various concentrations (ranging from high to low) of the selected compounds were prepared in RPMI 1640 medium by double dilution in 96-well microtitre plates. Each well contained an inoculum of approximately 2×10^3 cells/mL. The wells without addition of drugs served as negative (no inoculum) and positive (inoculum only) growth controls. Microtitre plates were incubated at 35° C. for 24-48 hours. […] Antifungal MICs were determined for each isolate in duplicate; if the values obtained were different, the MIC test was repeated a third time.

Cryptococcus neoformans [3] = assay: CLSI broth microdilution MIC (Example 4); assay type: cell-based
Protocol: as §2

Candida albicans [4] = assay: CLSI broth microdilution MIC (Example 5); assay type: cell-based
Protocol: as §2, with “robenidine” for “robenidine (NCL)”, “(NCL23, NCL24, NCL97,” for “(NCL004, NCL020, NCL023, NCL024, NCL062, NCL094, NCL097, NCL110,”, “NCL113,” for “NCL113, NCL114,”, “NCL115,” for “NCL115, NCL135, NCL139, NCL180, NCL181,”, “NCL220,” for “NCL220, NCL228, NCL247, NCL250,”, “NCL265)” for “NCL260, NCL263, NCL265, NCL269, NCL274)”

Cryptococcus neoformans [5] = assay: CLSI broth microdilution MIC (Example 5); assay type: cell-based
Protocol: as §2, with “robenidine” for “robenidine (NCL)”, “(NCL23, NCL24, NCL97,” for “(NCL004, NCL020, NCL023, NCL024, NCL062, NCL094, NCL097, NCL110,”, “NCL113,” for “NCL113, NCL114,”, “NCL115,” for “NCL115, NCL135, NCL139, NCL180, NCL181,”, “NCL220,” for “NCL220, NCL228, NCL247, NCL250,”, “NCL265)” for “NCL260, NCL263, NCL265, NCL269, NCL274)”

Candida albicans [6] = assay: CLSI broth microdilution MIC (Example 6); assay type: cell-based
Protocol: (§3) Antifungal minimum inhibitory concentration (MIC) testing was undertaken as recommended by the CLSI (1). Briefly, antifungal susceptibility tests were performed for amphotericin B, robenidine (NCL812) and 10 robenidine analogs (NCL023, NCL024, NCL097, NCL113, NCL115, NCL195, NCL219, NCL220, NCL259, NCL265) by standard broth microdilution method (CLSI) in RPMI 1640. Various concentrations (ranging from high to low) of the selected compounds were prepared in RPMI 1640 medium by double dilution in 96-well microtitre plates. Each well contained an inoculum of approximately 2×10^3 cells/mL. The wells without addition of drugs served as negative (no inoculum) and positive (inoculum only) growth controls. Microtitre plates were incubated at 35° C. for 24-48 hours. […] Antifungal MICs were determined for each isolate in duplicate; if the values obtained were different, the MIC test was repeated a third time.

Cryptococcus neoformans [7] = assay: CLSI broth microdilution MIC (Example 6); assay type: cell-based
Protocol: as §3

C. gattii = assay: CLSI broth microdilution MIC (Example 6); assay type: cell-based, Cryptococcus gattii
Protocol: as §3

[8] = test system: Candida albicans ATCC14053; assay: Broth micro-dilution screen at 16 μg/mL and MIC (Example 9); assay type: cell-based; settings: single concentration 16 μg/mL; Growth or No growth of C. albicans ATCC14053
Protocol: The antifungal activity of 201 NCL analogs against Candida albicans ATCC14053 in vitro was investigated. A broth micro-dilution method was used, according to CLSI guidelines as described. NCL analogs were dissolved in DMSO and originally screened at a single concentration of 16 μg/mL.

[9] = Candida albicans ATCC 90028, 1st
[10] = Candida albicans ATCC 90028, 2nd

Structure (SMILES): C[C@@H]1[C@H](O)[C@@H](C)/C=C/C=C/C=C/C=C/C=C/C=C/C=C/[C@H](O[C@@H]2O[C@H](C)[C@@H](O)[C@H](N)[C@@H]2O)C[C@@H]2O[C@](O)(C[C@@H](O)C[C@@H](O)[C@H](O)CC[C@@H](O)C[C@@H](O)CC(=O)O[C@H]1C)C[C@H](O)[C@H]2C(=O)O [Amphotericin B, reference compound]
- MIC (Candida albicans [1]; [9]): 0.25 µg/mL (≈ 0.271 µM)
- MIC (Candida albicans [1]; [10]): 0.5 µg/mL (≈ 0.541 µM)
- MIC (Candida albicans [1]; Candida albicans, 1st): 0.5 µg/mL (≈ 0.541 µM)
- MIC (Candida albicans [1]; Candida albicans, 2nd): 1 µg/mL (≈ 1.08 µM)
- MIC (Candida parapsilosis; 1st): 0.5 µg/mL (≈ 0.541 µM)
- MIC (Candida parapsilosis; 2nd): 0.5 µg/mL (≈ 0.541 µM)
- MIC at 24-48 hours (Candida albicans [2]; Candida albicans ATCC 90028): 0.5 µg/mL (≈ 0.541 µM)
- MIC at 24-48 hours (Candida albicans [2]; Candida albicans SA3): 2 µg/mL (≈ 2.16 µM)
- MIC at 24-48 hours (Cryptococcus neoformans [3]; Cryptococcus neoformans SA1): 0.3 µg/mL (≈ 0.325 µM)
- MIC at 24-48 hours (Cryptococcus neoformans [3]; Cryptococcus neoformans SA2): 0.3 µg/mL (≈ 0.325 µM)
- MIC (Candida albicans [4]; C. albicans SA3): 2 µg/mL (≈ 2.16 µM)
- MIC (Candida albicans [4]; Candida albicans ATCC 90028): 0.5 µg/mL (≈ 0.541 µM)
- MIC (Candida albicans [4]; clinical isolate C. albicans 12-93301752 Azole Resistant): 0.5 µg/mL (≈ 0.541 µM)
- MIC (Candida albicans [4]; clinical isolate C. albicans 14-90045999 Azole Resistant): 0.25 µg/mL (≈ 0.271 µM)
- MIC (Candida albicans [4]; clinical isolate C. albicans 15-45171061): 0.125 µg/mL (≈ 0.135 µM)
- MIC (Candida albicans [4]; clinical isolate C. albicans 15-91329871): 0.125 µg/mL (≈ 0.135 µM)
- MIC (Candida albicans [4]; clinical isolate C. albicans 16-24136919 Azole Resistant): 0.5 µg/mL (≈ 0.541 µM)
- MIC (Candida albicans [4]; clinical isolate C. albicans 16-46177400): 0.25 µg/mL (≈ 0.271 µM)
- MIC (Candida albicans [4]; clinical isolate C. albicans 16-90050810): 0.125 µg/mL (≈ 0.135 µM)
- MIC (Candida albicans [4]; clinical isolate C. albicans 16-90054237): 0.125 µg/mL (≈ 0.135 µM)
- MIC (Candida albicans [4]; clinical isolate C. albicans 18-144-00196): 0.25 µg/mL (≈ 0.271 µM)
- MIC (Candida albicans [4]; clinical isolate C. albicans 18-148-08188 Azole Resistant): 0.5 µg/mL (≈ 0.541 µM)
- MIC (Cryptococcus neoformans [5]; Cryptococcus neoformans SA1): 0.25 µg/mL (≈ 0.271 µM)
- MIC (Cryptococcus neoformans [5]; Cryptococcus neoformans SA2): 0.25 µg/mL (≈ 0.271 µM)
- MIC (Candida albicans [6]; C. albicans SA3): 2 µg/mL (≈ 2.16 µM)
- MIC (Candida albicans [6]; Candida albicans ATCC 90028): 0.5 µg/mL (≈ 0.541 µM)
- MIC (Cryptococcus neoformans [7]; Cryptococcus neoformans SA1): 0.3 µg/mL (≈ 0.325 µM)
- MIC (Cryptococcus neoformans [7]; Cryptococcus neoformans SA2): 0.3 µg/mL (≈ 0.325 µM)
- MIC (Cryptococcus neoformans [7]; human clinical isolate C. neoformans serotype A/D hybrid): 0.5 µg/mL (≈ 0.541 µM)
- MIC (Cryptococcus neoformans [7]; human clinical isolate C. neoformans var grubii 16-90050434): 1 µg/mL (≈ 1.08 µM)
- MIC (Cryptococcus neoformans [7]; human clinical isolate C. neoformans var grubii 17-90028233): 2 µg/mL (≈ 2.16 µM)
- MIC (Cryptococcus neoformans [7]; human clinical isolate C. neoformans var grubii 17-93996464): 1 µg/mL (≈ 1.08 µM)
- MIC (Cryptococcus neoformans [7]; human clinical isolate C. neoformans var grubii 17-93996964): 1 µg/mL (≈ 1.08 µM)
- MIC (C. gattii; human clinical isolate C. gatti 17-90232099): 1 µg/mL (≈ 1.08 µM)
- MIC (C. gattii; human clinical isolate C. gattii 16-90050373): 1 µg/mL (≈ 1.08 µM)
- MIC (C. gattii; human clinical isolate C. gattii 17-90028211): 1 µg/mL (≈ 1.08 µM)
- MIC (C. gattii; human clinical isolate C. gattii 17-90028217): 0.5 µg/mL (≈ 0.541 µM)
- MIC (C. gattii; human clinical isolate C. gattii 17-90028242): 1 µg/mL (≈ 1.08 µM)

Structure (SMILES): C/C(=N\NC(=N)N/N=C(\C)c1ccc(Cl)cc1)c1ccc(Cl)cc1.Cl [NCL062]
- MIC (Candida albicans [1]; [9]): 1 µg/mL
- MIC (Candida albicans [1]; [10]): 1 µg/mL
- MIC (Candida albicans [1]; Candida albicans, 1st): 0.5 µg/mL
- MIC (Candida albicans [1]; Candida albicans, 2nd): 1 µg/mL
- MIC (Candida parapsilosis; 1st): 0.5 µg/mL
- MIC (Candida parapsilosis; 2nd): 1 µg/mL
- MIC at 24-48 hours (Candida albicans [2]; Candida albicans ATCC 90028): 1 µg/mL
- MIC at 24-48 hours (Candida albicans [2]; Candida albicans SA3): 1 µg/mL
- antifungal activity against the two isolates of Candida albicans (Candida albicans [2]; summary in words): high antifungal activity
- MIC at 24-48 hours (Cryptococcus neoformans [3]; Cryptococcus neoformans SA1): 1 µg/mL
- MIC at 24-48 hours (Cryptococcus neoformans [3]; Cryptococcus neoformans SA2): 1 µg/mL
- Screen at 16 μg/mL [8]: Growth
